Structures are written as SMILES. Values after ≈ are worked out from the molar mass of the structure shown.

The nature of data set [1]: Zeta potential titration of emulsions (droplet charge vs pH). The settings on record: SBO 10%, Lecithin 2% at pH 7; 5 mg/mL (formulation #1) versus 1 mg/mL (formulation #2). The data set is classed as physicochemical. On the procedure: Panel A, titration results of 1% EYP/10% SBO in 1 mM dibasic phosphate. Panel B, titration results of cinacalcet/1% EYP/10% SBO in 1 mM dibasic phosphate. Other components of the emulsions include 10% soybean oil, 1% egg lecithin, 2.25% glycerin and water. Panel C, titration results for Compound A. Emulsion composition: SBO 10%, Lecithin 2% at pH 7. Concentration of Compound A was 5 mg/mL for formulation #1 and 1 mg/mL for formulation #2.
The zeta potential measurements were made on a Malvern Zetasizer 4 laser-scattering particle electrophoretic analyzer that measures the electrophoretic mobility and zeta potential distribution. Samples were prepared for the zeta potential titration by diluting the emulsion approximately 2500 fold in 1 mM dibasic phosphate pH 9 and titrating the solution with 100 mM phosphoric acid in 0.5 pH unit increments. […] Theoretically, the emulsions are stabilized by this charge, which prevents the droplets from coalescing. […] In contrast, the cinacalcet emulsions achieve charge neutrality in the range of pH 7-7.5.

A short description of data set [2]: Long-term storage stability of emulsions (assay, pH, particle size). The data set is classed as physicochemical. The conditions noted are these: Compound A emulsions; over 14 months at any of the storage conditions tested. On the procedure:
Calcimimetics emulsions for long-term studies were prepared at 5 mg/mL drug concentration, 5% SBO, 2% egg lecithin, 2% glycerin, 20 mM TRIS buffer at pH 9. The emulsions were packed in glass vials at 20 mL each and stored inverted in stability chambers. At each time-point, 3 vials from each chamber were pulled and analyzed for the calcimimetic concentration, pH and particle size. […] The values for pH dropped over time, with greater magnitude of drop seen at higher temperature.

Data set [3] can be described thus: Loss in drug strength due to adsorption to PVC tubing. The data set is classed as physicochemical. Here is the method: A solution of compound A was prepared in acetate mannitol buffer at pH 4. At this pH, the compound forms a clear solution of concentration 0.2 mg/mL. An equivalent emulsion was prepared at the same concentration with 5% soybean oil, 2% lecithin, 2% glycerin and 20 mM TRIS buffer at pH 9. PVC tubing was selected as an example of commonly used intravenous infusion set. 15 cm sections of this tube were filled with either the solution or emulsion formulation and clamped on both ends. These filled tubes were held at the ambient temperature for 1 hour. The formulations inside were collected and analyzed for drug content using reversed phase HPLC. […] Panel A: Compound A in acetate/mannitol solution, pre-exposure. Panel B: compound A in acetate/mannitol solution, after 1 hour of exposure to the PVC tubing. Panel C: compound A formulated in the emulsion of the invention, pre-exposure. Panel D: compound A formulated in the emulsion of the invention, pre-exposure, after 1 hour of exposure to the PVC tubing.

The nature of data set [4]: Solubility of calcimimetics in oil phases (RP-HPLC). The data set is classed as physicochemical. The conditions noted are these: long-chain oil phases; for solubility at 18 h: oil or lipid, thermodynamic from solid. On the procedure:
The solubility measurements of the compounds were prepared by the addition of 1 g of drug substance to two milliliters of oil into a Wheaton 5 mL vial. The headspace was sparged with nitrogen, and enclosed with a West 4405/50 gray Teflon coated stopper and manually sealed by an aluminum overseal. The preparations were repeated again with the oils containing either purified egg or soy lecithin. All labeled vials were shaken at room temperature for eighteen hours on a platform shaker. After eighteen hours, the samples were diluted in mobile phase, and analyzed by the RP-HPLC method. Table 2 summarizes solubility results (expressed in mg/mL) of cinacalcet in various oil phases.

Data set [5] concerns rabbit ear vein. In words: Acute local venous toxicity / irritation in the rabbit ear vein (REV). The data set is classed as in vivo. Also on record: Erythema / Edema: scale not given here. The source says: This Example illustrates the protective effect of the formulations of the invention as measured by irritation in the rabbit ear vein (REV). A typical protocol for evaluation of the local tolerance for formulations was as follows.
Dosing of animals. The rabbits used were male New Zealand rabbits weighing approximately 2.5 to 4 kg. The rabbits were acclimatized for a period of 10 days following receipt before the start of the study. The rabbits were randomized into groups based on the number of formulations to be studied. Typically 3 rabbits were used per group.
For each group of rabbits, the formulation containing the drug to be tested was dosed in the right marginal ear vein, with the corresponding placebo being dosed at the same time in the left marginal ear vein. The placebos were prepared such that they matched the formulation composition, and the technique of dosing for the drug formulations and the placebo formulations were kept the same. Typical dosing volumes ranged from 1 mL/kg to 5 mL/kg. The formulations were either dosed as (a) bolus injection wherein the entire dosing volume was administered within 5 minutes; (b) 30 minute infusion; or (c) a 2 hour infusion. The formulations were administered through appropriately sized syringes and catheters. The injection sites were marked with indelible ink for identification at each observation period. The rabbits were dosed based upon the Day 1 body weight.
Observation of animals. Each animal was observed cage side at least twice daily for mortality/morbundity. Each animal received a detailed clinical observation once prior to randomization, once prior to dosage administration and once daily thereafter.
Any abnormalities were recorded as they were observed. Observations for local irritation were scored according to the following scale
At each interval the area of irritation (if present) was also measured. The actual length and width in mm was recorded.
On day 3 the animals were euthanized and the tissues from the Pinna of the left and right ear, and any gross lesions (if present) of the ear or ear vein were collected. Histopathology was performed on the collected tissues. After fixation, the pinna was tripped into a total of 4 sections of 1 cm each; one of which included the deposition site (location of the end of the catheter in the ear) and one from approximately 1-, 2-, and 3-cm downstream from the deposition site. Each section included skin, cartilage, vein and other soft tissue. These tissues were then embedded in paraffin, sectioned and stained with hematoxylin and eosin, and examined via light microscopy.

In data set [6] the target is cytochrome P450 2D6 (Homo sapiens, UniProt P10635). The conditions noted are these: stated as known; cited from earlier work.
Chain of cytochrome P450 2D6 (P10635 whole entry, the tested form may be a part): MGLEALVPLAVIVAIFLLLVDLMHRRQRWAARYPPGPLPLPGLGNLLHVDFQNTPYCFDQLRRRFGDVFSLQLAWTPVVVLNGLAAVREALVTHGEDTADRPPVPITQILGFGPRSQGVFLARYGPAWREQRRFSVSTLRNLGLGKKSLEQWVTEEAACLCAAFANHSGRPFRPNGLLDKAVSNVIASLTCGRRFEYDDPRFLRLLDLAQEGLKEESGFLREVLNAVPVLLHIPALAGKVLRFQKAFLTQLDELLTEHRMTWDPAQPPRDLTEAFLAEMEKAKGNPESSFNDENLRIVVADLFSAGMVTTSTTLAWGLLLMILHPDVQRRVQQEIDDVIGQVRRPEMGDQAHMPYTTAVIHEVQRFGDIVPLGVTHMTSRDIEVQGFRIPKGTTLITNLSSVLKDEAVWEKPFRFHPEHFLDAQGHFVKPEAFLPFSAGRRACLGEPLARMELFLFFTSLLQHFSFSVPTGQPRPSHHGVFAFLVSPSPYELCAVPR
Where [7] appears, read: emulsion with TRIS buffer 20 mM, pH 9, 2-hour infusion, 2 mg/kg (conc. 5 mg/mL), 0 h.
The mark [8] stands for this setting: emulsion with TRIS buffer 20 mM, pH 9, 2-hour infusion, 2 mg/kg (conc. 5 mg/mL), 48 h.
Setting [9] is: emulsion with TRIS buffer 20 mM, pH 9, 2-hour infusion, 6 mg/kg (conc. 5 mg/mL), 0 h.
Where [10] appears, read: emulsion with TRIS buffer 20 mM, pH 9, 2-hour infusion, 6 mg/kg (conc. 5 mg/mL), 48 h.
Setting [11] is: solution in acetate mannitol buffer, pH 4, 2 hour infusion, 1 mg/kg (conc. 0.1 mg/mL), 0 h.
[12] abbreviates: solution in acetate mannitol buffer, pH 4, 2 hour infusion, 1 mg/kg (conc. 0.1 mg/mL), 48 h.

For orientation: solubility means the concentration that dissolves in the medium under given conditions. Regarding `COc1ccc(CN[C@H](C)c2ccccc2)cc1-c1ccc(C(F)(F)F)cc1` [Compound A, (1R)—N-((6-(methyloxy)-4′-(trifluoromethyl)-1,1′-biphenyl-3-yl)methyl)-1-phenylethanamine], the “pH at which emulsion reaches neutral charge” value in data set [1] was “reaches neutral charge at a higher pH”. In addition, the “change in particle size” value in data set [2] is reported as “No change”. The “difference in concentration of drug before or after exposure to tubing” value in data set [3] (0.2 mg/mL emulsion (5% soybean oil, 2% lecithin, 2% glycerin, 20 mM TRIS, pH 9), 1 hour) is “no significant difference”. In addition, in data set [3] (0.2 mg/mL solution in acetate mannitol buffer at pH 4, ambient temperature), the “drug concentration after 1 hour holding in the tubing” value is reported as “about 50 % of initial concentration”. Moreover, the solubility at 18 h in data set [4] is more than 300 mg/mL. The local venous toxicity result in data set [5] (dosed as a solution) is listed as “evidence of local venous toxicity”. The “effect on the vasculature” value in data set [5] (emulsion containing Compound A) is on record as “protective effect on the vasculature”. Besides, the Edema in data set [5] (setting [7]), in data set [5] (setting [8]), in data set [5] (setting [9]), in data set [5] (setting [10]), in data set [5] (setting [11]) and in data set [5] (setting [12]) was 0.0 ± 0.0 in each case. Moreover, the Erythema in data set [5] (setting [7]) is 0.0 ± 0.0; in data set [5] (setting [8]), 0.0 ± 0.0; in data set [5] (setting [9]), 0.0 ± 0.0; in data set [5] (setting [10]), 0.0 ± 0.0; in data set [5] (setting [11]), 0.0 ± 0.0; in data set [5] (setting [12]), 1.3 ± 2.3. Moreover, the “Histopathology: severity and incidence of edema, hemorrhage and subacute inflammation” value in data set [5] (emulsion with TRIS buffer 20 mM, pH 9, 2-hour infusion, 2 and 6 mg/kg, compared to the solution) was “much lower in all thee animals as compared”; in data set [5] (solution in acetate mannitol buffer, pH 4, 2 hour infusion, 1 mg/kg, compared to placebo), “higher in the ears treated with Compound A”.

For the molecule `COc1ccc(CN[C@H](C)c2cccc3ccccc23)cc1-c1ccc(OC(F)(F)F)cc1` [Compound B, (1R)—N-((6-(methyloxy)-4′-((trifluoromethyl)oxy)-1,1′-biphenyl-3-yl)methyl)-1-(1-naphthalenyl)ethanamine], the solubility at 18 h in data set [4] is 50 mg/mL (≈ 111 mM).

For the molecule `COc1ccc(CN[C@H](C)c2ccccc2)cc1-c1ccc(OC(F)(F)F)cc1` [Compound C, (1R)—N-((6-(methyloxy)-4′-((trifluoromethyl)oxy)-1,1′-biphenyl-3-yl)methyl)-1-phenylethanamine], the solubility at 18 h in data set [4] is more than 300 mg/mL.

Regarding `COc1ccc(CN[C@H](C)c2cccc(F)c2)cc1-c1ccc(C(F)(F)F)cc1` [Compound D, (1R)-1-(3-fluorophenyl)-N-((6-(methyloxy)-4′-(trifluoromethyl)-1,1′-biphenyl-3-yl)methyl)ethanamine], in data set [4], the solubility at 18 h is more than 300 mg/mL.

Regarding `COc1ccc(CN[C@H](C)c2cccc(Cl)c2)cc1-c1ccc(C(F)(F)F)cc1` [Compound E, (1R)-1-(3-chlorophenyl)-N-((6-(methyloxy)-4′-(trifluoromethyl)-1,1′-biphenyl-3-yl)methyl)ethanamine], in data set [4], the solubility at 18 h was more than 300 mg/mL.

Regarding `CCn1cc(-c2cccc(C(F)(F)F)c2)c2cc(CN[C@H](C)c3ccccc3)ccc21` [Compound F, (1R)—N-((1-ethyl-3-(3-(trifluoromethyl)phenyl)-1H-indol-5-yl)methyl)-1-phenylethanamine], the solubility at 18 h in data set [4] is more than 300 mg/mL.

What is called Solubility is how much of the substance goes into solution per volume. In the case of `COc1ccc([C@@H](C)N[C@H](C)c2ccccc2)cc1-c1ccc(C(F)(F)F)cc1` [Compound G], in data set [4], the Solubility is more than 50 mg/mL.

On to `C[C@@H](NCc1ccc(Cl)c(-c2ccc(OC(F)(F)F)cc2)c1)c1cccc2ccccc12` [Compound H, (1R)—N-((6-chloro-4′-((trifluoromethyl)oxy)-3-biphenyl)methyl)-1-(1-naphthalenyl)ethanolamine], for which the Solubility in data set [4] is given as more than 50 mg/mL.

For `C[C@@H](NCCCc1cccc(C(F)(F)F)c1)c1cccc2ccccc12` [Sensipar], in data set [6], the metabolism result is given as “metabolized by cytochrome P450 2D6”.

The record behind these values is patent US8779004B2, “Stable emulsion formulations” (Amgen, Inc., priority 2006, dated 2014).
